System: Plasmodium falciparum
Experiment: Antimalarial activity against chloroquine-resistant, mefloquine-sensitive Plasmodium falciparum W2
Assay type: functional

SMILES | Log RA
C[C@@H]1CC[C@@H]2[C@]34OO[C@](C)(CC[C@@H]13)O[C@H]4OC(=O)[C@]21CO1 | -4
CO[C@@H]1O[C@@]2(C)CC[C@H]3CCCC[C@]31OO2 | -1.04
CCOC1O[C@@H]2O[C@@]3(C)CC[C@H]4[C@H](C)CC[C@H]([C@@]24OO3)[C@]1(C)O (stereo not given in full) | -0.44
C[C@@H]1CC[C@H]2[C@@H](C)C(CC(C)(F)F)O[C@@H]3O[C@@]4(C)CC[C@@H]1[C@]32OO4 (stereo not given in full) | -0.17
CCOC(=O)C[C@@H](O[C@H]1O[C@@H]2O[C@@]3(C)CC[C@H]4[C@H](C)CC[C@@H]([C@H]1C)[C@@]24OO3)c1ccc([N+](=O)[O-])cc1 | 0.9
C[C@@H]1CC[C@@H]2[C@]34OO[C@](C)(CC[C@@H]13)O[C@H]4OC(OCC(F)(F)F)[C@]2(C)O (stereo not given in full) | -0.7
C[C@@H]1CC[C@@H]2[C@]34OO[C@](C)(CC[C@@H]13)O[C@H]4OC(=O)[C@@]21CO1 | -2.09
C[C@@]12C[C@H]3CCC[C@H]4CC(=O)O[C@H](O1)[C@@]34OO2 | -1.79
CC(C)[C@H]1C(=O)O[C@@H]2O[C@@]3(C)CC[C@H]4[C@H](C)CC[C@]1(C)[C@@]24OO3 | -0.04
CCO[C@H]1O[C@@H]2O[C@@]3(C)CC[C@H]4C(C)C(=O)C[C@@H]([C@H]1C)[C@@]24OO3 (stereo not given in full) | 0.16
CCO[C@@H]1O[C@@H]2O[C@@]3(C)CC[C@H]4[C@H](C)CC[C@@H]([C@H]1C)[C@@]24OO3 | 0.32
CCOC1C[C@@H]2CC[C@@H](C)[C@@H]3CC[C@@]4(C)OO[C@@]23[C@H](O1)O4 (stereo not given in full) | 0.43
CCO[C@H]1O[C@@H]2O[C@@]3(C)CC[C@H]4[C@H](C)CC[C@@H]([C@H]1C)[C@@]24O3 | -4
CCC[C@H]1C(=O)O[C@@H]2O[C@@]3(C)CC[C@H]4[C@H](C)CC[C@@H]1[C@@]24O3 | -4
CCCC[C@H]1C(=O)O[C@@H]2O[C@@]3(CCC(=O)OCC)CC[C@H]4[C@H](C)CC[C@@H]1[C@@]24OO3 | -1.36
C[C@@H]1CC[C@H]2CCO[C@@H]3O[C@@]4(C)CC[C@@H]1[C@@]23OO4 | 0.28
C[C@@H]1CCC2[C@@H](C)C(=O)OC3OC(C)(C)OO[C@@]32C1 (stereo not given in full) | -0.15
CO[C@H]1O[C@@]2(C)CC[C@H]3CCCC[C@]31OO2 | -0.31
C=CCN1C(=O)[C@H](C)[C@@H]2CC[C@@H](C)[C@@H]3CC[C@@]4(C)OO[C@]32[C@H]1O4 | -0.04
C[C@]12CC[C@H]3CCCC[C@@]3(OO1)[C@H](OCc1ccccc1)O2 | -0.09
COC(=O)CCCOC1O[C@@H]2O[C@@]3(C)CC[C@H]4[C@H](C)CC[C@@H]([C@H]1C)[C@@]24OO3 (stereo not given in full) | -0.03
COC(=O)CCOC1O[C@@H]2O[C@@]3(C)CC[C@H]4[C@H](C)CC[C@@H]([C@H]1C)[C@@]24OO3 (stereo not given in full) | 0.1

SMILES | Log RA
CCCCCC[C@H]1C(=O)O[C@@H]2O[C@@]3(C)CC[C@H]4[C@H](C)CC[C@@H]1[C@@]24OO3 | 0.86
CO[C@H]1O[C@@]2(C)CC[C@H]3CCC[C@@H](CCOC(=O)c4ccc(C(=O)OCCN(C)C)cc4)[C@]31OO2 | -0.6
C[C@@H]1CC[C@H]2[C@@H](CCc3ccccc3)C(=O)O[C@@H]3O[C@@]4(C)CC[C@@H]1[C@]32OO4 | 0.12
CCOC(=O)C[C@H](O[C@H]1O[C@@H]2O[C@@]3(C)CC[C@H]4[C@H](C)CC[C@@H]([C@H]1C)[C@@]24OO3)c1ccc([N+](=O)[O-])cc1 | 1.57
CC1C(=O)O[C@@H]2C[C@@]3(C)CC[C@H]4[C@H](C)CC[C@@H]1[C@@]24OO3 (stereo not given in full) | -0.96
C[C@@H]1CC[C@H]2[C@@H](C)C(=O)O[C@@H]3O[C@@]4(C)CC[C@@H]1[C@]32O4 [DEOXYARTEMISININ] | -4
COC(=O)c1ccccc1S(=O)(=O)OCC[C@@H]1CCC[C@@H]2CC[C@@]3(C)OO[C@]21[C@@H](OC)O3 | -0.87
CO[C@H]1O[C@@]2(C)CC[C@H]3CCC[C@@H](CCOC(=O)c4ccccc4)[C@]31OO2 | -0.59
C[C@@]12CC[C@H]3CCC[C@H]4CC(=O)O[C@H](O1)[C@@]34OO2 | -0.36
C[C@@H]1CC[C@@H]2[C@]34OO[C@](C)(CC[C@@H]13)O[C@H]4OC(O)[C@]21CO1 (stereo not given in full) | -0.57
CO[C@@H]1O[C@@]2(C)CC[C@H]3CCC[C@@H](CCOC(=O)N(c4ccccc4)c4ccccc4)[C@]31OO2 | 1.06
C[C@@H]1CCC2[C@@H](C)COC3OC4(CCCC4)OO[C@@]32C1 (stereo not given in full) | -0.26
CC1CCO[C@@H]2O[C@@]3(C)CC[C@H]4[C@H](C)CC[C@@H]1[C@@]24OO3 (stereo not given in full) | -1.2
CC(C)CN1C(=O)C[C@@H]2CC[C@@H](C)[C@@H]3CC[C@@]4(C)OO[C@@]23[C@H]1O4 | 0.02
C[C@H]1[C@@H](O[C@@H](C)c2ccc(C(F)(F)F)cc2)O[C@@H]2O[C@@]3(C)CC[C@H]4[C@H](C)CC[C@@H]1[C@@]24OO3 | 0.15
CO[C@]1(C)CC[C@H]2[C@H](C)CCC[C@]2(C=O)OO1 | -3.3
C[C@@H]1CC[C@@H]2[C@]34OO[C@](C)(CC[C@@H]13)O[C@H]4OC(Nc1ncccn1)[C@@]2(C)Br (stereo not given in full) | -0.77
CC(=O)Oc1ccc([C@H](C)O[C@H]2O[C@@H]3O[C@@]4(C)CC[C@H]5[C@H](C)CC[C@@H]([C@H]2C)[C@@]35OO4)cc1 | 0.68
C[C@@H]1CC[C@H]2[C@@H](CCCc3ccccc3)CO[C@@H]3O[C@@]4(C)CC[C@@H]1[C@]32OO4 | 1.4
C[C@@H]1CC[C@H]2CCO[C@@H]3O[C@@]4(CCCc5ccc(Cl)cc5)CC[C@@H]1[C@@]23OO4 | -0.55
C[C@@H]1CCC[C@]23OO[C@](C)(CC[C@@H]12)O[C@H]3OC(=O)Cc1ccccc1 | -0.51
CCO[C@H]1O[C@@H]2O[C@@]3(C)CC[C@H]4C(C(F)F)CC[C@@H]([C@H]1C)[C@@]24OO3 (stereo not given in full) | 0.41

SMILES | Log RA
C[C@@H]1CC[C@H]2[C@@H](C)C(=O)O[C@@H]3O[C@@]4(C)CC[C@@H]1[C@]32OO4 [ARTEMISININ] | 0
CCOC(=O)CC[C@@]12CC[C@H]3[C@H](C)CC[C@H]4CCO[C@H](O1)[C@]43O2 | -4
CC(=O)Oc1ccc([C@@H](C)O[C@H]2O[C@@H]3O[C@@]4(C)CC[C@H]5[C@H](C)CC[C@@H]([C@H]2C)[C@@]35OO4)cc1 | 0.68
CCN(CC)C(=O)c1ccc(C(=O)OCC[C@@H]2CCC[C@@H]3CC[C@@]4(C)OO[C@]32[C@@H](OC)O4)cc1 | 0.23
CC(C)CC[C@H]1C(=O)O[C@@H]2O[C@@]3(C)CC[C@H]4[C@H](C)CC[C@@H]1[C@@]24OO3 | 0.07
C[C@@H]1CC[C@H]2CC(=O)N(CCCc3ccccc3)[C@@H]3O[C@@]4(C)CC[C@@H]1[C@@]23OO4 | 0.02
CC(C)CC[C@H]1C(=O)O[C@@H]2O[C@@]3(C)CC[C@H]4[C@H](C)CC[C@@H]1[C@@]24O3 | -4
CCOP(=O)(OCC)OCC[C@@H]1CCC[C@@H]2CC[C@@]3(C)OO[C@]21[C@@H](OC)O3 | 0.37
C[C@@H]1CC[C@H]2[C@@H](C)C(=O)N[C@@H]3O[C@@]4(C)CC[C@@H]1[C@]32O4 | -4
C[C@@H]1CC[C@@H]2[C@]34OO[C@](C)(CC[C@@H]13)O[C@H]4OC(=O)[C@@]21CCC1C[Si](C)(C)C (stereo not given in full) | -1.24
C[C@@H]1CC[C@H]2[C@H]3CCCO[C@H]3O[C@@H]3O[C@@]4(C)CC[C@@H]1[C@]32OO4 | 0.23
CCC[C@H]1CO[C@@H]2O[C@@]3(C)CC[C@H]4[C@H](C)CC[C@@H]1[C@@]24OO3 | 0.74
CC1(C)OO[C@]23CCCCC2CC(=O)OC3O1 (stereo not given in full) | -2.237
C[C@@H]1CC[C@H]2CC(=O)O[C@@H]3O[C@@]4(C)CC[C@@H]1[C@@]23OO4 | 0.79
C=CC[C@H]1C(=O)O[C@@H]2O[C@@]3(C)CC[C@H]4[C@H](C)CC[C@@H]1[C@@]24OO3 | -0.1
C[C@@H]1CC[C@H]2CCO[C@@H]3O[C@@]4(CCCCc5ccccc5)CC[C@@H]1[C@@]23OO4 | 0.58
CCN(CC)C(=O)OCC[C@@H]1CCC[C@@H]2CC[C@@]3(C)OO[C@]21[C@H](OC)O3 | 0.65
CO[C@H]1O[C@@]2(C)CC[C@H]3CCC[C@@H](CCOS(=O)(=O)c4ccc(C)cc4)[C@]31OO2 | 0.2
C[C@@H]1CC[C@@H]2[C@]34OO[C@](C)(CC[C@@H]13)O[C@H]4OC(Nc1nccs1)[C@@]2(C)Br (stereo not given in full) | 0.66
CO[C@@]1(C)CC[C@H]2[C@H](C)CCC[C@]2(C=O)OO1 | -4
CCCC[C@H]1C(=O)O[C@@H]2O[C@@]3(C)CC[C@H]4[C@H](C)CC[C@@H]1[C@@]24OO3 | 0.17
